# In US11974990B2, “TXNIP-TRX complex inhibitors and methods of using the same” (City of Hope, priority 2018, dated 2024):
# Entries after “also recorded” stand apart in the source; their conditions may differ.
# Tested on: TXNIP mRNA
# Assay: TXNIP mRNA expression (RT-PCR) in THP1 cells under 25 mM glucose
# Format: cell-based, human
# Conditions: THP1, 25 mM glucose, concentration range of C1, 72 h (FIG. 9A)
# Experimental: FIGS. 9A-9B. FIG. 9A. […] THP1 cells were cultured in 25 mM glucose with the indicated concentrations of C1 for 72 h. Cell were collected for total RNA preparation. RT-PCR were performed and data shown are the mean+SEM from triplicates. Statistical analysis was performed using one-way ANOVA, *<0.0001. FIG. 9B. […] THP1 cells were cultured in 25 mM glucose and C1 (uM) as indicated for 72 hours and collected for total RNA preparation. RT-PCR was performed. Data shown are the mean+SEM from triplicates. Statistical analysis was performed using one-way ANOVA: *<0.02; **<0.0001.
# FIG. 13. C1 analogs affects TXNIP mRNA expression in THP1 cells. THP1 cells were cultured in 25 mM glucose with 5 uM of compounds for 72 h. Total RNA was collected and RT-PCR was performed in triplicate and data shown are the mean+SEM. Statistical analysis was performed using one-way ANOVA: *<0.0001.
# RNA extraction and quantitative RT-PCR. RNA was extracted using the Direct-zol™ RNA MiniPrep Plus (Zymo Research). […] Diluted cDNA was quantified using real-time PCR performed with Power SYBR Green qPCR MasterMix (Applied Biosystem) and 7500 real-time PCR system (Applied Biosystems). […]
# RNA extraction and quantitative RT-PCR. […] Diluted cDNA was quantified using real-time PCR performed with Power SYBR Green qPCR MasterMix (Applied Biosystem) and 7500 real-time PCR system (Applied Biosystems). […]
structure (smiles),measurement,value
"CC(C)C(C(=O)O)N1C(=O)c2ccncc2C1=O (stereo not shown) [Compound C1, 2-(1,3-dioxo-1,3-dihydro-2H-pyrrolo[3,4-c]pyridin-2-yl)-3-methylbutanoic acid]",TXNIP mRNA expression,inhibits TXNIP mRNA expression; also recorded: attenuate high glucose induced expression of inflammatory cytokine molecules and TXNIP in monocytes; also recorded: inhibit TXNIP expression in a dose-dependent manner
